From PMC12302228 (RSC Medicinal Chemistry, 2025)
≈ marks a conversion by molar mass, not a printed value. Like-named read-outs stand apart in the source and are kept apart here.

Experiments:
HL-60 = assay: Antiproliferative activity, MTT assay; format: cell-based, human; settings: mean ± SEM
physchem = settings: ultrapure water, 37 °C, kinetic from dmso stock
MCF7 = assay: Antiproliferative activity, SRB assay; format: cell-based, human; settings: mean ± SEM
M21 = assay: Antiproliferative activity, SRB assay; format: cell-based, human; settings: mean ± SEM
THP-1 = assay: Antiproliferative activity, MTT assay; format: cell-based, human; settings: mean ± SEM
HT-29 = assay: Antiproliferative activity, SRB assay; format: cell-based, human; settings: mean ± SEM
MOLM-13 = assay: Antiproliferative activity, MTT assay; format: cell-based, human; settings: read-out: IC50 MOLM-13; 48 h of treatment; mean ± SEM
HT-1080 = assay: Antiproliferative activity, SRB assay; format: cell-based, human; settings: read-out: IC50 HT-1080; 48 h of treatment; mean ± SEM
[1] = read-out: IC50 HL-60, 48 h of treatment
[2] = read-out: IC50 MCF7, 48 h of treatment
[3] = read-out: IC50 M21, 48 h of treatment
[4] = read-out: IC50 THP-1, 48 h of treatment
[5] = read-out: IC50 HT-29, 48 h of treatment
[6] = Homo sapiens, HL-60, 48 h, read-out: IC50 HL-60, 48 h of treatment
[7] = Homo sapiens, MCF7, 48 h, read-out: IC50 MCF7, 48 h of treatment
[8] = Homo sapiens, M21, 48 h, read-out: IC50 M21, 48 h of treatment
[9] = Homo sapiens, THP-1, 48 h, read-out: IC50 THP-1, 48 h of treatment
[10] = Homo sapiens, HT-29, 48 h, read-out: IC50 HT-29, 48 h of treatment

SMILES	IC50 (HL-60; [1]) [µM]	solubility at 24 h (physchem) [µg/mL]	IC50 (MCF7; [2]) [µM]	IC50 (THP-1; [4]) [µM]	IC50 (HT-29; [5]) [µM]	IC50 (MOLM-13) [µM]	IC50 (HT-1080) [µM]	IC50 (HL-60; [6]) [µM]	IC50 (MCF7; [7]) [µM]	IC50 (THP-1; [9]) [µM]	IC50 (HT-29; [10]) [µM]	IC50 (M21; [3]) [µM]	IC50 (M21; [8]) [µM]
CCCNC(=O)Nc1ccc(S(=O)(=O)Oc2cnccc2C)cc1.Cl [Compound 35, 4-Methylpyridin-3-yl 4-(3-propylureido)benzenesulfonate hydrochloride]	16.3 ± 0.1	138 ± 2	58 ± 8	5 ± 2	39 ± 2	9.2 ± 0.8	21 ± 2					56 ± 3	
Cl.O=C(NCCCl)Nc1ccc(S(=O)(=O)Oc2cccnc2I)cc1 [Compound 28, 2-Iodopyridin-3-yl 4-(3-(2-chloroethyl)ureido)benzenesulfonate hydrochloride]	19 ± 4	37 ± 2	13 ± 1	1.8 ± 0.7	21 ± 1	2.4 ± 0.4	3.1 ± 0.2					15 ± 1	
CCCNC(=O)Nc1ccc(S(=O)(=O)Oc2cnccc2Br)cc1 [Compound 15, 4-Bromopyridin-3-yl 4-(3-propylureido)benzenesulfonate]		35 ± 3 (≈ 84.5 µM)					4.1 ± 0.3	21 ± 5	12 ± 1	6 ± 1	19 ± 1		28 ± 2
CCCNC(=O)Nc1ccc(S(=O)(=O)Oc2cnccc2I)cc1 [Compound 16, 4-Iodopyridin-3-yl 4-(3-propylureido)benzenesulfonate]	18 ± 4	53 ± 6 (≈ 115 µM)	5 ± 1		6.9 ± 0.5	1.3 ± 0.3				1.5 ± 0.4		9.7 ± 0.9	
CCNC(=O)Nc1ccc(S(=O)(=O)Oc2cnccc2Br)cc1 [Compound 12, 4-Bromopyridin-3-yl 4-(3-ethylureido)benzenesulfonate]		64 ± 1 (≈ 160 µM)						> 50	32 ± 4	4 ± 0.6	25 ± 1	21 ± 1	
O=C(NCCCl)Nc1ccc(S(=O)(=O)Oc2cnccc2I)cc1 [Compound 18, 4-Iodopyridin-3-yl 4-(3-(2-chloroethyl)ureido)benzenesulfonate]		24 ± 2 (≈ 49.8 µM)						3 ± 1	2.8 ± 0.4	1.2 ± 0.3	2.7 ± 0.2		2.8 ± 0.3
CC(C)c1ncccc1OS(=O)(=O)c1ccc(NC(=O)NCCCl)cc1 [Compound 11, 2-Isopropylpyridin-3-yl 4-(3-(2-chloroethyl)ureido)benzenesulfonate]	27 ± 6	41 ± 3 (≈ 103 µM)							17 ± 1	2.3 ± 0.9	14 ± 1	20 ± 1	
O=C(NCCCl)Nc1ccc(S(=O)(=O)Oc2cccnc2Br)cc1 [Compound 9, 2-Bromopyridin-3-yl 4-(3-(2-chloroethyl)ureido)benzenesulfonate]	12 ± 1	56 ± 2 (≈ 129 µM)		1.2 ± 0.5					16 ± 1		17 ± 1		23 ± 1
CCNC(=O)Nc1ccc(S(=O)(=O)Oc2cnccc2I)cc1 [Compound 13, 4-Iodopyridin-3-yl 4-(3-ethylureido)benzenesulfonate]		63 ± 1 (≈ 141 µM)						25 ± 7	15 ± 2	1.8 ± 0.5	12 ± 1		9 ± 1

Continued, in another order:

IC50 (HL-60; [1]) [µM]	solubility at 24 h (physchem) [µg/mL]	IC50 (MCF7; [2]) [µM]	IC50 (THP-1; [4]) [µM]	IC50 (HT-29; [5]) [µM]	IC50 (MOLM-13) [µM]	IC50 (HT-1080) [µM]	IC50 (HL-60; [6]) [µM]	IC50 (MCF7; [7]) [µM]	IC50 (THP-1; [9]) [µM]	IC50 (HT-29; [10]) [µM]	SMILES	IC50 (M21; [3]) [µM]	IC50 (M21; [8]) [µM]
50 ± 10	55 ± 1 (≈ 164 µM)	20 ± 3	4.4 ± 0.2	56 ± 3	6 ± 2	10.2 ± 0.8					CCNC(=O)Nc1ccc(S(=O)(=O)Oc2cccnc2C)cc1 [Compound 4, 2-Methylpyridin-3-yl 4-(3-ethylureido)benzenesulfonate]	79 ± 4	
	152 ± 4	51 ± 5				26 ± 2	60 ± 20		5 ± 2	> 100	CCNC(=O)Nc1ccc(S(=O)(=O)Oc2cccnc2C)cc1.Cl [Compound 22, 2-Methylpyridin-3-yl 4-(3-ethylureido)benzenesulfonate hydrochloride]		> 100
35 ± 7	44 ± 1 (≈ 126 µM)					5.1 ± 0.5		19 ± 2	3.5 ± 0.9	70 ± 8	CCCNC(=O)Nc1ccc(S(=O)(=O)Oc2cccnc2C)cc1 [Compound 8, 2-Methylpyridin-3-yl 4-(3-propylureido)benzenesulfonate]		69 ± 3
	79 ± 9			42 ± 2			37 ± 7	22 ± 2	10 ± 0.3		CCCNC(=O)Nc1ccc(S(=O)(=O)Oc2cccnc2Br)cc1.Cl [Compound 23, 2-Bromopyridin-3-yl 4-(3-propylureido)benzenesulfonate hydrochloride]		45 ± 2
